ChEMBL document CHEMBL1129502, “Betulinic acid and dihydrobetulinic acid derivatives as potent anti-HIV agents” (J Med Chem, 1996)
Each block holds one compound with its values, some of them ahead of it.

Legend:
H9 = assay: Inhibitory activity […] in mock infected H9 cells; assay type: functional, cell-based; conditions: Homo sapiens
[1] = Concentration inhibiting HIV-1 replication by 50% in infected H9 lymphocyte cells; conditions: human, HIV-1-infected H9 lymphocyte cells
[2] = system: Human immunodeficiency virus 1; assay: full Inhibitory activity against HIV-1-induced syncytia; assay type: functional
[3] = system: HIV-1 reverse transcriptase (Human immunodeficiency virus 1); assay: Inhibitory activity against HIV-RT; no inhibition
[4] = system: Human immunodeficiency virus 1; assay: Inhibitory activity against HIV-1-induced syncytia determined by fusion assay; assay type: functional

Structure (SMILES): C=C(C)[C@@H]1CC[C@]2(C(=O)NCCCCCCCC(=O)N[C@@H](CC(C)C)[C@@H](O)CC(=O)O)CC[C@]3(C)[C@H](CC[C@@H]4[C@@]5(C)CC[C@H](O)C(C)(C)[C@@H]5CC[C@]43C)[C@@H]12
- IC50 (H9): 2.7 µM
- EC50 [1]: 0.03 µM
- IC100 [2]: 3 µM
- IC50 [3]: Not Active

Structure (SMILES): CC(C)[C@@H]1CC[C@]2(C(=O)O)CC[C@]3(C)[C@H](CC[C@@H]4[C@@]5(C)CC[C@H](OC(=O)CC(C)(C)C(=O)O)C(C)(C)[C@@H]5CC[C@]43C)[C@@H]12
- IC50 (H9): 4.9 µM
- EC50 [1]: < 3.5 µM
- IC100 [4]: 34 µM

Structure (SMILES): CC(C)[C@@H]1CC[C@]2(C(=O)O)CC[C@]3(C)[C@H](CC[C@@H]4[C@@]5(C)CC[C@H](OC(=O)COCC(=O)O)C(C)(C)[C@@H]5CC[C@]43C)[C@@H]12
- IC50 (H9): 13.1 µM
- EC50 [1]: 5.6 µM
- IC100 [4]: 70 µM

Structure (SMILES): C=C(C)[C@@H]1CC[C@]2(C(=O)O)CC[C@]3(C)[C@H](CC[C@@H]4[C@@]5(C)CC[C@H](OC(=O)CC(C)(C)CC(=O)O)C(C)(C)[C@@H]5CC[C@]43C)[C@@H]12
- IC50 (H9): 4.5 µM
- EC50 [1]: 2.3 µM
- IC100 [4]: 50 µM

Structure (SMILES): CC(C)[C@@H]1CC[C@]2(C(=O)O)CC[C@]3(C)[C@H](CC[C@@H]4[C@@]5(C)CC[C@H](OC(=O)C(C)(C)CC(=O)O)C(C)(C)[C@@H]5CC[C@]43C)[C@@H]12
- IC50 (H9): 7.7 µM
- EC50 [1]: 0.56 µM

Structure (SMILES): C=C(C)[C@@H]1CC[C@]2(C(=O)O)CC[C@]3(C)[C@H](CC[C@@H]4[C@@]5(C)CC[C@H](O)C(C)(C)[C@@H]5CC[C@]43C)[C@@H]12 [BETULINIC ACID]
- IC50 (H9): 13 µM
- EC50 [1]: 1.4 µM
- IC100 [4]: >219 µM

Structure (SMILES): C=C(C)[C@@H]1CC[C@]2(C(=O)O)CC[C@]3(C)[C@H](CC[C@@H]4[C@@]5(C)CC[C@H](OC(=O)C(C)(C)CC(=O)O)C(C)(C)[C@@H]5CC[C@]43C)[C@@H]12
- IC50 (H9): 15.9 µM
- EC50 [1]: 2.7 µM
- IC100 [4]: 34 µM

Structure (SMILES): CC(C)[C@@H]1CC[C@]2(C(=O)O)CC[C@]3(C)[C@H](CC[C@@H]4[C@@]5(C)CC[C@H](OC(=O)CC(C)(C)CC(=O)O)C(C)(C)[C@@H]5CC[C@]43C)[C@@H]12
- IC50 (H9): 5.8 µM
- EC50 [1]: 5.7 µM
- IC100 [4]: 33 µM

Structure (SMILES): CC(C)[C@@H]1CC[C@]2(C(=O)O)CC[C@]3(C)[C@H](CC[C@@H]4[C@@]5(C)CC[C@H](O)C(C)(C)[C@@H]5CC[C@]43C)[C@@H]12 [DIHYDROBETULINIC ACID]
- IC50 (H9): 12.6 µM
- EC50 [1]: 0.9 µM
- IC100 [2]: >218 µM

- EC50 [1]: < 3.5 µM
Structure (SMILES): C=C(C)[C@@H]1CC[C@]2(C(=O)O)CC[C@]3(C)[C@H](CC[C@@H]4[C@@]5(C)CC[C@H](OC(=O)CC(C)(C)C(=O)O)C(C)(C)[C@@H]5CC[C@]43C)[C@@H]12 [BEVIRIMAT]
- IC50 (H9): 7 µM
- IC100 [4]: 34 µM

Structure (SMILES): C=C(C)[C@@H]1CC[C@]2(C(=O)O)CC[C@]3(C)[C@H](CC[C@@H]4[C@@]5(C)CC[C@H](OC(=O)COCC(=O)O)C(C)(C)[C@@H]5CC[C@]43C)[C@@H]12
- IC50 (H9): 11.7 µM
- EC50 [1]: 0.01 µM
- IC100 [4]: 70 µM
